{"source": "patent US20030113913A1", "about": "“Method of enhancing self renewal of stem cells and uses thereof” (PETER MACCALLUM CANCER INSTITUTE, priority 2001, published 2003)", "key": {"RARγ1": {"system": "RARγ1", "experiment": "RT-PCR expression of RARγ1 in LKS+ and LKS− cells cultured with or without ATRA", "format": "cell-based, murine", "protocol": "(§1) FACS-enriched hematopoietic precursors (lin− c-kit+ Sca-1+ or lin− c-kit+ Sca-1−) were added to wells containing media and cytokines (SCF, IL-6, IL-11 and Flt-3 ligand), and cultured without (No ATRA) or with (+ATRA) 1 μmol ATRA for 3, 7 or 14 days. After culture, the cells were retrieved, mRNA prepared and expression of RAR γ 1 was analysed by RT-PCR methods. LKS+=lin− c-kit+ Sca-1+ cells, LKS−=lin− c-kit+ Sca-1− cells; D=day of culture.\n(§2) Consideration was then given to the expression of the different RARs by progeny derived from lin− c-kit+ Sca-1+ cells (LKS+) or lin− c-kit+ Sca-1− cells (LKS−) after they had been cultured with or without ATRA for 3, 7 and 14 days."}, "[1]": {"system": "lin− c-kit+ Sca-1+ CD45.2+ (LKS) murine hematopoietic precursors", "experiment": "Serial transplantation of LKS hematopoietic precursors cultured with or without ATRA (congenic mouse model)", "format": "in vivo", "conditions": "for donor repopulating levels of quaternary transplant recipients: CD45.2+ donor cells in peripheral blood, mean ± SEM", "protocol": "2000 FACS-enriched hematopoietic precursors (lin− c-kit+ Sca-1+) were added to wells containing media and cytokines (SCF, IL-6, IL-11 and Flt-3 ligand), and cultured without (No ATRA) or with (ATRA) 1 umol ATRA. Irradiated primary Ly5.1 recipients (6 mice per group) were transplanted with 100 000 normal Ly5.1 bone marrow cells together with 1000 noncultured (Start) Ly5.2 lin− c-kit+ Sca-1+ cells or with all cells that grew from 1000 of these precursors after 3 (3D) or 7 (7D) days in liquid suspension culture. Subsequent transplants (secondary, tertiary and quaternary) were performed using fractions of bone marrow harvested from the primary, secondary or tertiary, respectively, transplant recipients. Data are expressed as the mean +/− SEM donor cell reconstitution in the peripheral blood of transplanted recipients analyzed at 6 months (primary recipients) or 3 months (secondary, tertiary and quaternary recipients) post-transplant.\nThese studies may be proven using in vivo assays, preferably using small animal models, more preferably using the congenic mouse hematopoietic stem cell transplantation model. This model relies on the use of donor and recipient mice that can be distinguished from each other by the presence of different epitopes for the leukocyte common antigen, which is present on all white blood cells.\nIrradiated CD45.1+ primary murine recipients were transplanted with 1×10^5 normal CD45.1+ bone marrow cells together with 1000 freshly isolated lin− c-kit+ Sca-1+ CD45.2+ (LKS) murine hematopoietic precursors or with all cells that grew from 1000 LKS after 3 or 7 days of culture with or without 1 μM ATRA. Primary recipients were euthanased 6 months post-transplant, their femoral marrows flushed and pooled within treatment groups and bone marrow from 1/10th of a femur of these mice were injected into each secondary irradiated recipient. Subsequent serial transplants were likewise performed at 4 month intervals post-transplant, with the 5th serial transplant currently being assessed. Recipient mice were analysed for multilineage repopulating donor cells (>5% CD45.2+) in each round of transplants."}, "RARβ2": {"system": "RARβ2", "experiment": "RT-PCR expression of RARβ2 in LKS+ and LKS− cells cultured with or without ATRA", "format": "cell-based, murine", "conditions": "cells derived from LKS+ and LKS− cultured with 1 μmol ATRA for 3, 7 or 14 days", "protocol": "as §1, with “After culture, the cells were retrieved, mRNA prepared and expression of RAR γ 1 was analysed by RT-PCR methods.” left out\nas §2"}}, "data": [{"smiles": "CC1=C(/C=C/C(C)=C/C=C/C(C)=C/C(=O)O)C(C)(C)CCC1", "note": "[ATRA, all trans-retinoic acid]", "values": [{"measurement": "RARγ1 expression", "setting": "RARγ1; LKS+ cells cultured with 1 μmol ATRA for 3, 7 or 14 days", "value": "maintained"}, {"measurement": "RARγ1 expression", "setting": "RARγ1; LKS− cells cultured with 1 μmol ATRA", "value": "not expressed"}, {"measurement": "donor repopulating levels of quaternary transplant recipients", "setting": "[1]; LKS cultured 3 days with 1 μM ATRA", "value": "20.09±8.63", "unit": "%"}, {"measurement": "donor repopulating levels of quaternary transplant recipients", "setting": "[1]; LKS cultured 7 days with 1 μM ATRA", "value": "14.98±5.94", "unit": "%"}, {"measurement": "multilineage donor reconstituting ability in serial transplant recipients", "setting": "[1]; all serial transplant recipients of 3 day and 7 day ATRA-treated LKS (1 μM)", "value": "significant multilineage donor reconstituting ability"}, {"measurement": "evidence of leukemia in recipient mice", "setting": "[1]; recipients of ATRA-treated LKS, successive rounds of transplants", "value": "nor was there any evidence of leukemia"}, {"measurement": "marrow cellularity of transplanted mice", "setting": "[1]; successive rounds of transplants, all treatment groups compared", "value": "no significant difference in marrow cellularity"}, {"measurement": "RARβ2 expression", "setting": "RARβ2", "value": "upregulates RARβ2 in cultured cells"}]}]}
